As usually defined, the IC50 is the concentration at which inhibition is half-maximal.

Chain of recombinant human 11β-HSD type 1 enzyme (P28845 whole entry): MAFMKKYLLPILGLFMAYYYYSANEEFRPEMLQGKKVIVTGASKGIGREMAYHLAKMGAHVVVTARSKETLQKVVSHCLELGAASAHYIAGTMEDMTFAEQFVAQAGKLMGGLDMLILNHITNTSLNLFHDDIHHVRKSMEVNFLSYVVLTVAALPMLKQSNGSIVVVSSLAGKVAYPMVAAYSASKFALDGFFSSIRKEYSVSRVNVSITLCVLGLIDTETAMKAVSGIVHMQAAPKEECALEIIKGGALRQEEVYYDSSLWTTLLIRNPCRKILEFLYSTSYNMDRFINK

The assay has as its target recombinant human 11β-HSD type 1 enzyme (Homo sapiens, UniProt P28845). The assay can be described thus: 11β-HSD type 1 enzyme assay (NADPH production by fluorescence). As to conditions: three hour incubation at room temperature. It is filed as biochemical. The method, then: 11β-HSD Type 1 Enzyme Assay
Human 11β-HSD type 1 activity is measured by assaying NADPH production by fluorescence assay. Solid compounds are dissolved in DMSO to a concentration of 10 mM. Twenty microliters of each are then transferred to a column of a 96-well polypropylene Nunc plate where they are further diluted 50-fold followed by subsequent two-fold titration, ten times across the plate with additional DMSO using a Tecan Genesis 200 automated system. Plates are then transferred to a Tecan Freedom 200 system with an attached Tecan Temo 96-well head and an Ultra 384 plate reader. Reagents are supplied in 96-well polypropylene Nunc plates and are dispensed individually into black 96-well Molecular Devices High Efficiency assay plates (40 μL/well capacity) in the following fashion: 9 μL/well of substrate (2.22 mM NADP, 55.5 μM Cortisol, 10 mM Tris, 0.25% Prionex, 0.1% Triton X100), 3 μL/well of water to compound wells or 3 μL to control and standard wells, 6 μL/well recombinant human 11β-HSD type 1 enzyme, 2 μL/well of compound dilutions. For ultimate calculation of percent inhibition, a series of wells are added that represent assay minimum and maximum: one set containing substrate with 667 μM carbenoxolone (background), and another set containing substrate and enzyme without compound (maximum signal). Final DMSO concentration is 0.5% for all compounds, controls and standards. Plates are then placed on a shaker by the robotic arm of the Tecan for 15 seconds before being covered and stacked for a three hour incubation period at room temperature. Upon completion of this incubation, the Tecan robotic arm removes each plate individually from the stacker and places them in position for addition of 5 μL/well of a 250 μM carbenoxolone solution to stop the enzymatic reaction. Plates are then shaken once more for 15 seconds then placed into an Ultra 384 microplate reader (355EX/460EM) for detection of NADPH fluorescence.
In the case of `O=C1C(Cc2cc3ccccc3s2)CCN1C1CCCCC1` (stereo not shown), the IC50 is 190 nM.

On to `O=C1C(Cc2cc3ccccc3o2)CCN1C1CCCCC1` (stereo not shown), for which the IC50 is 682 nM. As to `O=C1C(Cc2sc3cc4c(cc3c2Cl)OCO4)CCN1C1CCCCC1` (stereo not shown), the IC50 stood at 162 nM.

As for `COc1ccc2c(Cl)c(CC3CCN(C4CCCCC4)C3=O)sc2c1` (stereo not shown), the half-inhibitory concentration (IC50) was 508 nM. The same measure for `O=C1C(Cc2cc3cc(-c4ccnc(F)c4)ccc3s2)CCN1C1CCCCC1` (stereo not shown): 257 nM; for `O=C(O)c1ccc(-c2ccc3sc(CC4CCN(C5CCCCC5)C4=O)cc3c2)cc1` (stereo not shown): 427 nM. As for `O=C1C(Cc2sc3ccccc3c2Cl)CCCN1C1CCC(O)CC1` (stereo not shown), the figure is 276 nM.

For the origin of these results see patent US7834194B2, “Cycloalkyl lactam derivatives as inhibitors of 11-beta-hydroxysteroid dehydrogenase 1” (Eli Lilly and Company, priority 2004, dated 2010).
